According to PubChem BioAssay AID212 (DTP/NCI, 2004):
“And” between values parts separate entries of the source, which are not always exact repeats. Equal entries are not always repeated. Records with an inconclusive call do not appear.

System: BDF1 mice, colon carcinoma 38 sc, T/C %
Assay: NCI In Vivo Anticancer Drug Screen. Data for tumor model Colon Carcinoma 38 (subcutaneous) in B6D2F1 (BDF1) mice
Settings: endpoint: median tumor weight (est.), higher = larger tumour
In short: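 Mice with transplanted tumors are treated with compound or vehicle. Survival or tumor size is then measured in both groups. The ratio of treated to control gives the reported figure.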

[1] = dose: 12.5 mg/kg/injection, schedule: Q07DX002 (ip), vehicle: Klucel (hydroxypropylcellulose) (HPC)
[2] = dose: 25.0 mg/kg/injection, schedule: Q07DX002 (ip), vehicle: Klucel (hydroxypropylcellulose) (HPC)
[3] = dose: 50.0 mg/kg/injection, schedule: Q07DX002 (ip), vehicle: Klucel (hydroxypropylcellulose) (HPC)
[4] = dose: 100.0 mg/kg/injection, schedule: Q07DX002 (ip), vehicle: Klucel (hydroxypropylcellulose) (HPC)
[5] = dose: 200.0 mg/kg/injection, schedule: Q07DX002 (ip), vehicle: Klucel (hydroxypropylcellulose) (HPC)
[6] = dose: 400.0 mg/kg/injection, schedule: Q07DX002 (ip), vehicle: Klucel (hydroxypropylcellulose) (HPC)
[7] = dose: 50.0 mg/kg/injection, schedule: Q07DX002 (ip), vehicle: saline with Tween-80
[8] = dose: 200.0 mg/kg/injection, schedule: Q07DX002 (ip), vehicle: saline with Tween-80
[9] = dose: 400.0 mg/kg/injection, schedule: Q07DX002 (ip), vehicle: saline with Tween-80
[10] = dose: 100.0 mg/kg/injection, schedule: Q07DX002 (ip), vehicle: saline with Tween-80

In the case of `CN(C)/N=N/c1nc[nH]c1C(N)=O`, the T/C [1] is reported as 28 % of control, the T/C [2] is reported as 64 % of control and the T/C (dose: 25.0 mg/kg/injection, schedule: Q07DX003 (ip), vehicle: Klucel (hydroxypropylcellulose) (HPC)) is reported as 75 % of control. The T/C (dose: 25.0 mg/kg/injection, schedule: Q07DX003 (ip), vehicle: carboxymethylcellulose (CMC)) was 37 % of control, the T/C [3] was 40 % of control and the T/C (dose: 50.0 mg/kg/injection, schedule: Q07DX003 (ip), vehicle: Klucel (hydroxypropylcellulose) (HPC)) was 43 % of control. For the same molecule, the T/C (dose: 50.0 mg/kg/injection, schedule: Q07DX003 (ip), vehicle: carboxymethylcellulose (CMC)) was 28 % of control, the T/C [4] was 74 % of control and 75 % of control and the T/C (dose: 100.0 mg/kg/injection, schedule: Q07DX003 (ip), vehicle: Klucel (hydroxypropylcellulose) (HPC)) was 85 % of control. The T/C (dose: 100.0 mg/kg/injection, schedule: Q07DX003 (ip), vehicle: carboxymethylcellulose (CMC)) was 16 % of control, the T/C [5] was 12 % of control and 28 % of control and the T/C (dose: 200.0 mg/kg/injection, schedule: Q07DX003 (ip), vehicle: Klucel (hydroxypropylcellulose) (HPC)) was 9 % of control. For the same molecule, the T/C (dose: 200.0 mg/kg/injection, schedule: Q07DX003 (ip), vehicle: carboxymethylcellulose (CMC)) was 16 % of control, the T/C [6] was 13 % of control and 33 % of control and the T/C (dose: 400.0 mg/kg/injection, schedule: Q07DX003 (ip), vehicle: Klucel (hydroxypropylcellulose) (HPC)) was 44 % of control.

With `CC1(C)COCN1COCCOCN1COCC1(C)C` the T/C (dose: 12.5 mg/kg/injection, schedule: Q07DX002 (ip), vehicle: saline) was 87 % of control, the T/C (dose: 25.0 mg/kg/injection, schedule: Q07DX002 (ip), vehicle: saline) was 109 % of control and 112 % of control and the T/C (dose: 50.0 mg/kg/injection, schedule: Q07DX002 (ip), vehicle: saline) was 80 % of control and 95 % of control. The T/C (dose: 100.0 mg/kg/injection, schedule: Q07DX002 (ip), vehicle: saline) was 81 % of control and 88 % of control.

`[O-][n+]1c(CN2CCCCC2)nc2cccc3c2c1-c1ccccc1-3` was tested, and the T/C (dose: 12.5 mg/kg/injection, schedule: Q07DX002 (ip), vehicle: saline with Tween-80) was 66 % of control, the T/C [7] was 47 % of control and the T/C [8] was 57 % of control. The T/C [9] was 72 % of control and 81 % of control.

With `COc1cc2c(c(OC)c1OC)-c1c(cc3c(c1OC)OCO3)CC(C)C(C)(O)C2OC(=O)c1ccccc1` (stereo unspecified) the T/C (dose: 50.0 mg/kg/injection, schedule: Q07DX002 (ip), vehicle: saline + Tween-80 + alcohol) was 165 % of control, the T/C (dose: 100.0 mg/kg/injection, schedule: Q07DX002 (ip), vehicle: saline + Tween-80 + alcohol) was 103 % of control and the T/C (dose: 200.0 mg/kg/injection, schedule: Q07DX002 (ip), vehicle: saline + Tween-80 + alcohol) was 106 % of control. For the same molecule, the T/C (dose: 400.0 mg/kg/injection, schedule: Q07DX002 (ip), vehicle: saline + Tween-80 + alcohol) was 211 % of control and the T/C (dose: 800.0 mg/kg/injection, schedule: Q07DX002 (ip), vehicle: saline + Tween-80 + alcohol) was 111 % of control.

With `c1cc(OCC2CO2)ccc1OCC1CO1` (stereo unspecified) the T/C [2] was 76 % of control, the T/C [3] was 96 % of control and the T/C [7] was 113 % of control. For the same molecule, the T/C [4] was 67 % of control, the T/C [10] was 94 % of control and the T/C [5] was 63 % of control. For the same molecule, the T/C [8] was 82 % of control, the T/C [6] was 77 % of control and the T/C [9] was 102 % of control. The T/C (dose: 800.0 mg/kg/injection, schedule: Q07DX002 (ip), vehicle: saline with Tween-80) was 77 % of control.

With `Cc1ccc(N)c(N)c1` the T/C (dose: 25.0 mg/kg/injection, schedule: Q07DX002 (ip), vehicle: saline with Tween-80) was 80 % of control, the T/C [7] was 89 % of control and the T/C [10] was 101 % of control. The T/C [8] was 114 % of control and the T/C [9] was 96 % of control.

With `O=C(Nc1ccc(N=C=S)cc1Cl)c1cc(Cl)cc(Cl)c1O` the T/C [1] was 64 % of control and 65 % of control, the T/C [3] was 80 % of control and 87 % of control and the T/C [4] was 79 % of control.
